{"source": "ChEMBL document CHEMBL5634194", "about": "“Novel Myeloperoxidase Inhibitors for Treating Multiple Diseases” (ACS Med Chem Lett, 2024)", "data": [{"target": "T1, Myeloperoxidase (Homo sapiens, UniProt P05164)", "T1 sequence (P05164 whole entry)": "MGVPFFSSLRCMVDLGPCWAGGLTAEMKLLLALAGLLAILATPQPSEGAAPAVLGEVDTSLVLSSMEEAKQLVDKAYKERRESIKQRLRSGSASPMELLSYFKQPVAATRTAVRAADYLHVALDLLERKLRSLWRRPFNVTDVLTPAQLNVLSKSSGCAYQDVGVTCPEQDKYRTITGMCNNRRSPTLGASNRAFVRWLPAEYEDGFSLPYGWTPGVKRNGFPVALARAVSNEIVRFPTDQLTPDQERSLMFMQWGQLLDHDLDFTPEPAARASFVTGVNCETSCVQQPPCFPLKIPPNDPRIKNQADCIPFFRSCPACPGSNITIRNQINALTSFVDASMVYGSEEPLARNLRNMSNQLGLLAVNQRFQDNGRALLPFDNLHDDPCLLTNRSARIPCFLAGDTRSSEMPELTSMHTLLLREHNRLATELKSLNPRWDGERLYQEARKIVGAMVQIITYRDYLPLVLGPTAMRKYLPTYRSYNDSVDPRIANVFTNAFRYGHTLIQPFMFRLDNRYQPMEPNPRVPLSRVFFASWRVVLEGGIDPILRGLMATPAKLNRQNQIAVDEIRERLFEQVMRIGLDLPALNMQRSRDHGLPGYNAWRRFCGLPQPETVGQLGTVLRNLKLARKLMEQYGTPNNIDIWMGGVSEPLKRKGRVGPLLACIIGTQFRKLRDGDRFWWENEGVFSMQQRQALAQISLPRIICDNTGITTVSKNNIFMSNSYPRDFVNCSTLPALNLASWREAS", "experiment": "Inhibition of human MPO using H2O2 as substrate measured after 15 mins by chemiluminescence based assay", "units": {"IC50": "nM"}, "values": [{"smiles": "O=c1[nH]c(=S)n(Cc2ccccc2[C@H]2C[C@H](C(F)(F)F)CCN2)c2nc[nH]c12", "IC50": 3}, {"smiles": "O=c1[nH]c(=S)n(Cc2ccccc2[C@@H]2CCCCN2)c2cc[nH]c12", "IC50": 2}, {"smiles": "O=c1[nH]c(=S)n(Cc2ccccc2[C@H]2C[C@@H](C(F)(F)F)CCN2)c2cc[nH]c12", "IC50": 2}, {"smiles": "O=c1[nH]c(=S)n(Cc2ccccc2[C@@H]2C[C@H](C(F)(F)F)CCN2)c2nc[nH]c12", "IC50": 2}, {"smiles": "O=c1[nH]c(=S)n(Cc2ccccc2[C@@H]2C[C@H](C(F)F)CCN2)c2cc[nH]c12", "IC50": 1}, {"smiles": "O=c1[nH]c(=S)n(Cc2ccccc2[C@@H]2CC(F)(F)CCN2)c2cc[nH]c12", "IC50": 3}]}]}
